For orientation: IC50 means the concentration that gives 50% inhibition. High values mean a need for much substance, low ones inhibition by little substance.

Bounds are passed on as bounds.

Data on 50 compounds can be found in US9290511B2, “Thieno-pyrimidines, useful as potassium channel inhibitors” (XENTION LIMITED, priority 2011, dated 2016).

The target in the test is T1, Kir3.1/3.4 (Rattus norvegicus, UniProt P48548+P63251).
T1 construct: expressed in transfected cells
T1 sequence (P63251 1-501): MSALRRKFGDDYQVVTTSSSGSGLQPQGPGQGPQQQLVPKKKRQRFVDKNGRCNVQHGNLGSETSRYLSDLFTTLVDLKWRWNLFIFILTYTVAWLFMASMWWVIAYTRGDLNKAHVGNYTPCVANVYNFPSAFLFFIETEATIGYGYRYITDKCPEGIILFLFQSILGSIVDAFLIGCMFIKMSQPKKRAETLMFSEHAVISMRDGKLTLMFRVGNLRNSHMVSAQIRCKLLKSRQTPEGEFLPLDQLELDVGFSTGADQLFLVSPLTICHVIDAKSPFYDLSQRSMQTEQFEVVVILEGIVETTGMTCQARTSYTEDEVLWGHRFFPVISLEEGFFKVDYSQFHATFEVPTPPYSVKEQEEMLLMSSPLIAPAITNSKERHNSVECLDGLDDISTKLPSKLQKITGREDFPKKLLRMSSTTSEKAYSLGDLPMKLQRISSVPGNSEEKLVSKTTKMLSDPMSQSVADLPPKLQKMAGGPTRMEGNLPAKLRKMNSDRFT
T1 sequence (P48548 1-419): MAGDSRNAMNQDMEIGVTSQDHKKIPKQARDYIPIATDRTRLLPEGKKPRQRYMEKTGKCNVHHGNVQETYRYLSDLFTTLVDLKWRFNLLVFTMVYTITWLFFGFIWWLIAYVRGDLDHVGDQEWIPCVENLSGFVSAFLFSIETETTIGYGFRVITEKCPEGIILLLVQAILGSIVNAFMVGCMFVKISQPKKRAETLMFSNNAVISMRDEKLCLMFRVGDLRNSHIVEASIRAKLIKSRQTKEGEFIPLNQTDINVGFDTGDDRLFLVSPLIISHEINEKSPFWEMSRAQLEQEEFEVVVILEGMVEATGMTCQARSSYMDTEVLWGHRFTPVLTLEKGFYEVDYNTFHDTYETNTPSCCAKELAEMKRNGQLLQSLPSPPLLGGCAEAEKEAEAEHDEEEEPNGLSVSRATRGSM
As to the kind of experiment: Kir3.1/3.4 Electrophysiology Method (manual whole-cell patch clamp). It is filed as cell-based. As to conditions: Electrophysiology Method (TABLE 1). The method in brief: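 Manual whole-cell patch clamp on HEK293 cells stably expressing rat Kir3.1/3.4, with GTPγS in the pipette. Cells were held at −60 mV and stepped to +60 mV, then ramped to −140 mV every 10 s. Steady-state inhibition at −140 mV was measured after subtracting leak recorded in zero-K+ bath.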
In turn, `CN1CCC(N(C)CC2CCN(c3ncnc4scc(-c5ccccc5)c34)CC2)C1` (centres unmarked) [Example 202] came in with an IC50 of less than 500 nM. Regarding `CNC(=O)c1sc2ncnc(N3CCC(CN(C)C4CCN(C)C4)CC3)c2c1-c1ccccc1` (centres unmarked) [Example 131], the IC50 was 3000 to 10000 nM. With `COCC1CCN(c2nc(N3CCN(C)CC3)nc3scc(-c4ccccc4)c23)CC1` [Example 174], the IC50 is less than 500 nM. Compound `c1ccc(-c2csc3ncnc(N4CCC(COCCN5CCCC5)CC4)c23)cc1` [Example 5, 5-phenyl-4-[4-(2-pyrrolidin-1-ylethoxymethyl)-1-piperidyl]thieno[2,3-d]pyrimidine] gave an IC50 of less than 500 nM.

In turn, `CN(C)C1CCN(CC2CCN(c3nc(N4CCC(C(N)=O)C4)nc4scc(-c5ccccc5)c34)CC2)CC1` (centres unmarked) [Example 235] registered an IC50 of less than 500 nM. `c1ccc(-c2csc3nc(N4CCC(COCCN5CCCC5)C4)ncc23)cc1` (centres unmarked) [Example 149] gave an IC50 of less than 500 nM.

The compound `c1ccc(-c2csc3ncnc(N4CCC(COC5CCOC5)CC4)c23)cc1` (centres unmarked) [Example 16, 5-phenyl-4-[4-(tetrahydrofuran-3-yloxymethyl)-1-piperidyl]thieno[2,3-d]pyrimidine] yielded an IC50 of 500 to 3000 nM. `NC(=O)[C@@H]1CCCN1CCOCC1C2CN(c3ncnc4scc(-c5ccc(F)cc5)c34)CC12` (some centres unmarked) [Example 277] had an IC50 of less than 500 nM. Under `CN(CCC1CCCN1)CC1CCN(c2ncnc3scc(-c4ccccc4)c23)CC1` (centres unmarked) [Example 86, N-methyl-N-[[1-(5-phenylthieno[2,3-d]pyrimidin-4-yl)-4-piperidyl]methyl]-2-pyrrolidin-2-yl-ethanamine] stands less than 500 nM.

As for `Cc1sc2ncnc(N3CCC(CNC4CCN(C)CC4)CC3)c2c1C` [Example 232], the IC50 is less than 500 nM. `CC(=O)NC1CCN(c2nc(N3CCC(COCCN4CCCC4)CC3)c3c(-c4ccccc4)csc3n2)C1` (centres unmarked) [Example 257] showed an IC50 of less than 500 nM. For the compound `c1ccc(-c2csc3nccc(N4CCC(COCCN5CCCC5)CC4)c23)cc1` [Example 142, 3-phenyl-4-[4-(2-pyrrolidin-1-ylethoxymethyl)-1-piperidyl]thieno[2,3-b]pyridine], the IC50 was less than 500 nM. `F[C@@H]1CCN(CCOCC2CCN(c3ncnc4scc(-c5ccccc5)c34)CC2)C1` [Example 32, 4-[4-[2-[(3R)-3-fluoropyrrolidin-1-yl]ethoxymethyl]-1-piperidyl]-5-phenyl-thieno[2,3-d]pyrimidine] came in with an IC50 of less than 500 nM. `CN(C)C1CCN(c2nc(N3CCC(O)C3)nc3scc(-c4ccccc4)c23)CC1` (centres unmarked) [Example 188] displayed an IC50 of 500 to 3000 nM. As for `COCC1CCN(c2nc(CC(=O)NCCN3CCCC3)nc3scc(-c4ccccc4)c23)CC1` [Example 182], the IC50 was less than 500 nM. Regarding `COC1CC2CCC(C1)N2c1nc(OC2CC3CC2CN3)nc2scc(-c3ccccc3)c12` (centres unmarked) [Example 348], the IC50 is less than 500 nM. For `CN1CCCC1CCNCC1CCN(c2ncnc3scc(-c4ccccc4)c23)CC1` (centres unmarked) [Example 58, 2-(1-methylpyrrolidin-2-yl)-N—[[1-(5-phenylthieno[2,3-d]pyrimidin-4-yl)-4-piperidyl]methyl]ethanamine], the IC50 is less than 500 nM.

On to `c1ccc(CNc2sc3ncnc(N4CCC(COCCN5CCCC5)CC4)c3c2-c2ccccc2)cc1` [Example 168, N-benzyl-5-phenyl-4-[4-(2-pyrrolidin-1-ylethoxymethyl)-1-piperidyl]thieno[2,3-d]pyrimidin-6-amine], for which the IC50 was less than 500 nM. Under `CN1CCCCC1CCOCC1CCN(c2ncnc3scc(-c4cccc(F)c4)c23)CC1` (centres unmarked) [Example 36, 5-(3-fluorophenyl)-4-[4-[2-(1-methyl-2-piperidyl)ethoxymethyl]-1-piperidyl]thieno[2,3-d]pyrimidine] stands less than 500 nM; under `CC(C)NC(=O)c1sc2ncnc(N3CCC(COCCN4CCCC4)CC3)c2c1-c1cccc(F)c1` [Example 137], less than 500 nM. Take `CC1CCN(CC2CC(c3ccccc3)N(c3ncnc4scc(-c5ccccc5)c34)C2)C1` (centres unmarked) [Example 198]: the IC50 was less than 500 nM. As to `c1ccc(-c2csc3ncnc(N4CCC(CNCCC5CC5)CC4)c23)cc1` [Example 103], the IC50 is less than 500 nM. `COc1ccccc1-c1csc2nc(C3CC3)nc(N3CCC(COCCN4CCCC4)CC3)c12` [Example 358, 2-cyclopropyl-5-(2-methoxyphenyl)-4-[4-(2-pyrrolidin-1-ylethoxymethyl)-1-piperidyl]thieno[2,3-d]pyrimidine] registered an IC50 of less than 500 nM. Turning to `COc1ncccc1-c1csc2ncnc(N3C4CCC3CC(NC3CCC3)C4)c12` (centres unmarked) [Example 345], the IC50 was less than 500 nM.

On to `CN1CCC(N(C)CC2CCN(c3nc(N4CCNCC4)nc4scc(-c5ccccc5)c34)CC2)C1` (centres unmarked) [Example 112], for which the IC50 is less than 500 nM. With `OC1(CN2CCCC2)CCN(c2ncnc3scc(-c4ccccc4)c23)CC1` [Example 195], the IC50 is less than 500 nM. The value for `CC1CCN(CC2CCN(c3ncnc4scc(-c5ccccc5)c34)CC2)C1` (centres unmarked) [Example 50, 4-[4-[(3-methylpyrrolidin-1-yl)methyl]-1-piperidyl]-5-phenyl-thieno[2,3-d]pyrimidine] was 500 to 3000 nM; that for `CC(C)NC1CC2CCC(C1)N2c1ncnc2scc(-c3ccccc3)c12` (centres unmarked) [Example 327, N-isopropyl-8-(5-phenylthieno[2,3-d]pyrimidin-4-yl)-8-azabicyclo[3.2.1]octan-3-amine] was less than 500 nM; that for `FC(F)(F)Oc1ccccc1-c1csc2ncnc(N3C4CCC3CC(NC3CCC3)C4)c12` (centres unmarked) [Example 341] was less than 500 nM.

In the case of `COc1ncccc1-c1csc2ncnc(N3C4CCC3CC(CO)C4)c12` (centres unmarked) [Example 365], the IC50 was 500 to 3000 nM.

`FC(F)(F)c1nc(N2CCOCC2)c2c(-c3ccccc3)csc2n1` [Example 336] showed an IC50 of 500 to 3000 nM. `c1ccc(COC2CCN(c3ncnc4scc(-c5ccccc5)c34)C2)cc1` (centres unmarked) [Example 178, d]pyrimidine] displayed an IC50 of 500 to 3000 nM.

The compound `CC(=O)N(C)C1CCN(CC2CCN(c3ncnc4scc(-c5ccccc5)c34)CC2)C1` (centres unmarked) [Example 248] gave an IC50 of less than 500 nM.

The compound `CN(C)CCCNCC1CCN(c2ncnc3scc(-c4ccccc4)c23)CC1` [Example 217] registered an IC50 of less than 500 nM. Compound `NC(=O)C1CCN(c2nc(N3CCC(COCCN4CCCC4)CC3)c3c(-c4ccccc4)csc3n2)C1` (centres unmarked) [Example 256] came in with an IC50 of less than 500 nM.

For the compound `CCc1c(C)sc2ncnc(N3CCC(COCCC4CCCN4C)CC3)c12` (centres unmarked) [Example 24, 5-ethyl-6-methyl-4-[4-[2-(1-methylpyrrolidin-2-yl)ethoxymethyl]-1-piperidyl]thieno[2,3-d]pyrimidine], the IC50 was less than 500 nM. The value for `c1ccc(-c2csc3ncnc(N4CCC(OCCCN5CCCC5)CC4)c23)cc1` [Example 296] was less than 500 nM; that for `CN(CC1CCN(c2ncnc3scc(-c4ccccc4)c23)CC1)C1CCC1` [Example 251] was less than 500 nM. `COc1ccccc1-c1csc2ncnc(N3C4CCC3CC(COCCN3CCCC3)C4)c12` (centres unmarked) [Example 362] displayed an IC50 of less than 500 nM.

Regarding `CCc1nc(N2CCC(N(C)C)CC2)c2c(-c3ccccc3)csc2n1` [Example 170], the IC50 is 500 to 3000 nM.

The compound `NC(=O)C1CCN(c2nc(N3C4CCC3CC(CO)C4)c3c(-c4ccccc4)csc3n2)C1` (centres unmarked) [Example 310] registered an IC50 of 500 to 3000 nM. Compound `Brc1sc2nccc(N3CCC(COCCN4CCCC4)CC3)c2c1-c1ccccc1` [Example 143] had an IC50 of less than 500 nM.

`CN1CCC(N(C)CC2CCN(c3ncnc4sc(Br)c(-c5ccccc5)c34)CC2)C1` (centres unmarked) [Example 266]: the IC50 was less than 500 nM. For `CC(C)(C)NCC1CC2CCC(C1)N2c1ncnc2scc(-c3ccccc3)c12` (centres unmarked) [Example 333], the IC50 is less than 500 nM. In the case of `CC(C)NC(=O)c1sc2ncnc(N3C4CCC3CC(COCCN3CCCC3)C4)c2c1-c1ccccc1` (centres unmarked) [Example 357], the IC50 is less than 500 nM. The compound `COc1ccccc1-c1csc2ncnc(N3C4CCC3CC(NC3CCC3)C4)c12` (centres unmarked) [Example 342] returned an IC50 of less than 500 nM. `c1nc(N2CCC(COCCN3CCCC3)CC2)c2c(-c3ccc4c(c3)OCO4)csc2n1` [Example 319] showed an IC50 of less than 500 nM. Turning to `COc1ccccc1-c1csc2ncnc(N3CCC(COCCN4CCCC4)CC3)c12` [Example 329], the IC50 was less than 500 nM. As for `CN1CC(N(C)CC2CCN(c3ncnc4scc(-c5ccccc5)c34)CC2)CC1=O` (centres unmarked) [Example 250], the IC50 was in the range of 500 to 3000 nM. Turning to `FC(F)(F)c1nc(N2CCC(COCCN3CCCC3)CC2)c2c(-c3ccccc3)csc2n1` [Example 340, 5-phenyl-4-[4-(2-pyrrolidin-1-ylethoxymethyl)-1-piperidyl]-2-(trifluoromethyl)thieno[2,3-d]pyrimidine], the IC50 was less than 500 nM.
